Biological target: T1, rat NaP2b (SLC34A2) (Rattus norvegicus, UniProt Q9JJ09)
T1 construct: host or cells: HEK293
T1 sequence (Q9JJ09 1-695): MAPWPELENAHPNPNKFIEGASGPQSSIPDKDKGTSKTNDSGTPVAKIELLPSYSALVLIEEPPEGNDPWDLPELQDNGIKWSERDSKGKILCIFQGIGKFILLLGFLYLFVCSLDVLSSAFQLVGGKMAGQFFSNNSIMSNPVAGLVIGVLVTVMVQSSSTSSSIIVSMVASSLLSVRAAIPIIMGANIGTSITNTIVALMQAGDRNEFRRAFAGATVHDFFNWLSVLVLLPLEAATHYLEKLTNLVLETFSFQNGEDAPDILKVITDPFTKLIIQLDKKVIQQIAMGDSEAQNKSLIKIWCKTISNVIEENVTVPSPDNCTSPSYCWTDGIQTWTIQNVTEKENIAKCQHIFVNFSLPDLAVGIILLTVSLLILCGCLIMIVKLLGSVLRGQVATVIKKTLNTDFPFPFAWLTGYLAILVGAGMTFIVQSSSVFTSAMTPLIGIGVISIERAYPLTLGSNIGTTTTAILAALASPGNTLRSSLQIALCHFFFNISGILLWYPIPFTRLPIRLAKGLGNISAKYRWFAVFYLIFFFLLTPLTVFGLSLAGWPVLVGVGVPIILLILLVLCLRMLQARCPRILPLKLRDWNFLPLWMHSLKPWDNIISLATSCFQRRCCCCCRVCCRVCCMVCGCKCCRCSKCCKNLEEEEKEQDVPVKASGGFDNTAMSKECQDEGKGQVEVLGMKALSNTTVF
Experiment: Inhibition of NaP2b-mediated Pi (33P) uptake in transfected HEK293 cells, rat NaP2b
Type: cell-based
Conditions: 33P Pi uptake, 0.1 mM phosphate, value given as pIC50 range
Experimental: HEK293 cells were obtained from the American Type Culture collection and propagated per their instructions. […] The sequence of the human protein was mutated to insert a threonine after residue 37, and to introduce a N39D mutation.
Cells were seeded into 96-well plates at 25,000 cells/well and cultured overnight. Lipofectamine 2000 (Invitrogen) was used to introduce the NaP2b cDNA, and the cells were allowed to approach confluence during a second overnight incubation. […] Each compound was tested at twelve concentrations ranging from 0.1 nM to 30 uM. Assays were run in duplicate.
Cells were lysed by addition of 20 μL 0.1% Tween 80 followed by 100 μL scintillation fluid, and counted using a TopCount (Perkin Elmer).
pIC50 (the negative log of the IC50) values of the test compounds were calculated using GraphPad Prism.

IC50 [µM]	SMILES
10 to 31.6	CC(=O)NC1CCN(C(=O)c2cccc(C(=O)Nc3ccc(N4CCCCC4)cc3-c3cc(C(=O)NCc4cccc(C(F)(F)F)c4)ccn3)c2)C1 (stereo in doubt) [Example 4.10, (S)-2-(2-(3-(3-Acetamidopyrrolidine-1-carbonyl)benzamido)-5-(piperidin-1-yl)phenyl)-N-(3-(trifluoromethyl)benzyl)isonicotinamide]
1 to 7.94	COCCNC(=O)C1CCCN(Cc2cccc(C(=O)Nc3ccc(N4CCCCC4)cc3-c3cc(C(=O)NCc4cccc(C(F)(F)F)c4)ccn3)c2)C1 (stereo in doubt) [Example 12.1, (S)-2-(2-(3-((3-((2-Methoxyethyl)carbamoyl)piperidin-1-yl)methyl)benzamido)-5-(piperidin-1-yl)phenyl)-N-(3-(trifluoromethyl)benzyl)isonicotinamide]
10 to 31.6	COCCNC(=O)C1CCCN(Cc2cccc(C(=O)Nc3ccc(N4CCCCC4)cc3-c3cc(C(=O)NCc4cccc(C(F)(F)F)c4)ccn3)c2)C1 (stereo in doubt) [Example 12.2, (R)-2-(2-(3-((3-((2-Methoxyethyl)carbamoyl)piperidin-1-yl)methyl)benzamido)-5-(piperidin-1-yl)phenyl)-N-(3-(trifluoromethyl)benzyl)isonicotinamide]
10 to 31.6	O=C(O)CCSCc1cccc(C(=O)Nc2ccc(N3CCCCC3)cc2-c2cc(C(=O)NCc3ccc(C(F)(F)F)nc3)ccn2)c1 [Example 1.2, 3-((3-((4-(Piperidin-1-yl)-2-(4-(((6-(trifluoromethyl)pyridin-3-yl)methyl)carbamoyl)pyridin-2-yl)phenyl)carbamoyl)benzyl)thio)propanoic acid]
1 to 7.94	CC(C)(C)c1ccc(CNC(=O)c2ccnc(-c3cc(N4CCCCC4)ccc3NC(=O)c3cccc(CSCCC(=O)O)c3)c2)cc1 [Example 1.3, 3-((3-((2-(4-((4-(Tert-butyl)benzyl)carbamoyl)pyridin-2-yl)-4-(piperidin-1-yl)phenyl)carbamoyl)benzyl)thio)propanoic acid]
1 to 7.94	O=C(O)CCSCc1cccc(C(=O)Nc2ccc(N3CCCCC3)cc2-c2cc(C(=O)NCCc3cccc(C(F)(F)F)c3)ccn2)c1 [Example 1.5]
1 to 7.94	CCCCCCCNC(=O)c1ccnc(-c2cc(N3CCCCC3)ccc2NC(=O)c2cccc(CSCCC(=O)O)c2)c1 [Example 1.6]
1 to 7.94	O=C(O)CCSCc1cccc(C(=O)Nc2ccc(N3CCCCC3)cc2-c2cc(C(=O)NCC3CCCCC3)ccn2)c1 [Example 1.7]
10 to 31.6	CC(C)CNC(=O)c1ccnc(-c2cc(N3CCCCC3)ccc2NC(=O)c2cccc(CSCCC(=O)O)c2)c1 [Example 1.8]
1 to 7.94	CN(C)c1ccc(CNC(=O)c2ccnc(-c3cc(N4CCCCC4)ccc3NC(=O)c3cccc(CSCCC(=O)O)c3)c2)cc1 [Example 1.10]
10 to 31.6	Nc1ccccc1CNC(=O)c1ccnc(-c2cc(N3CCCCC3)ccc2NC(=O)c2cccc(CSCCC(=O)O)c2)c1 [Example 1.11]
1 to 7.94	O=C(O)CCSCc1cccc(C(=O)Nc2ccc(N3CCCCC3)cc2-c2cc(C(=O)NCc3cccc4ccccc34)ccn2)c1 [Example 1.12]
1 to 7.94	O=C(O)CCSCc1cccc(C(=O)Nc2ccc(N3CCCCC3)cc2-c2cc(C(=O)NC3CCCc4ccccc43)ccn2)c1 (stereo not drawn) [Example 1.13]
1 to 7.94	O=C(O)CCSCc1cccc(C(=O)Nc2ccc(N3CCCCC3)cc2-c2cc(C(=O)NCc3ccc(N4CCCCC4)cc3)ccn2)c1 [Example 1.14]
1 to 7.94	O=C(O)CCSCc1cccc(C(=O)Nc2ccc(N3CCCCC3)cc2-c2cc(C(=O)NCc3cccc(N4CCCCC4)c3)ccn2)c1 [Example 1.15]
10 to 31.6	O=C(O)CCSCc1cccc(C(=O)Nc2ccc(N3CCCCC3)cc2-c2cc(C(=O)NCc3cccc(CN4CCOCC4)c3)ccn2)c1 [Example 1.16]
1 to 7.94	Cc1ccc(Cl)cc1CNC(=O)c1ccnc(-c2cc(N3CCCCC3)ccc2NC(=O)c2cccc(CSCCC(=O)O)c2)c1 [Example 1.17]
1 to 7.94	Cc1ccc(CNC(=O)c2ccnc(-c3cc(N4CCCCC4)ccc3NC(=O)c3cccc(CSCCC(=O)O)c3)c2)o1 [Example 1.18]
10 to 31.6	O=C(O)CCSCc1cccc(C(=O)Nc2ccc(N3CCCCC3)cc2-c2cc(C(=O)Nc3nc4ccccc4[nH]3)ccn2)c1 [Example 1.19]
10 to 31.6	O=C(O)CCSCc1cccc(C(=O)Nc2ccc(N3CCCCC3)cc2-c2cc(C(=O)Nc3ccc4ncsc4c3)ccn2)c1 [Example 1.20]
10 to 31.6	O=C(O)CCSCc1cccc(C(=O)Nc2ccc(N3CCCCC3)cc2-c2cc(C(=O)NCc3cccc(-n4cccn4)c3)ccn2)c1 [Example 1.21]
1 to 7.94	O=C(O)CCSCc1cccc(C(=O)Nc2ccc(N3CCCCC3)cc2-c2cc(C(=O)NCc3ccc4c(c3)OCCCO4)ccn2)c1 [Example 1.22]
1 to 7.94	O=C(O)CCSCc1cccc(C(=O)Nc2ccc(N3CCCCC3)cc2-c2cc(C(=O)NCc3ccc4c(c3)OCO4)ccn2)c1 [Example 1.23]

IC50 [µM]	SMILES
1 to 7.94	O=C(O)CCSCc1cccc(C(=O)Nc2ccc(N3CCCCC3)cc2-c2cc(C(=O)NCc3ccc4c(c3)CCO4)ccn2)c1 [Example 1.24]
1 to 7.94	O=C(O)CCSCc1cccc(C(=O)Nc2ccc(N3CCCCC3)cc2-c2cc(C(=O)NCc3ccc(F)c(OC(F)(F)F)c3)ccn2)c1 [Example 1.25]
1 to 7.94	O=C(O)CCSCc1cccc(C(=O)Nc2ccc(N3CCCCC3)cc2-c2cc(C(=O)NCc3ccc(OC(F)(F)F)c(F)c3)ccn2)c1 [Example 1.26]
10 to 31.6	COc1ccc(CNC(=O)c2ccnc(-c3cc(N4CCCCC4)ccc3NC(=O)c3cccc(CSCCC(=O)O)c3)c2)cc1C(F)(F)F [Example 1.27]
1 to 7.94	O=C(O)CCSCc1cccc(C(=O)Nc2ccc(N3CCCCC3)cc2-c2cc(C(=O)NCc3ccc(F)c(C(F)(F)F)c3)ccn2)c1 [Example 1.28]
1 to 7.94	O=C(O)CCSCc1cccc(C(=O)Nc2ccc(N3CCCCC3)cc2-c2cc(C(=O)NCc3cc(F)cc(C(F)(F)F)c3)ccn2)c1 [Example 1.29]
1 to 7.94	O=C(O)CCSCc1cccc(C(=O)Nc2ccc(N3CCCCC3)cc2-c2cc(C(=O)NCc3cc(C(F)(F)F)ccc3F)ccn2)c1 [Example 1.30]
1 to 7.94	O=C(O)CCSCc1cccc(C(=O)Nc2ccc(N3CCCCC3)cc2-c2cc(C(=O)NCc3cccc(C(F)(F)F)c3F)ccn2)c1 [Example 1.31]
1 to 7.94	O=C(O)CCSCc1cccc(C(=O)Nc2ccc(N3CCCCC3)cc2-c2cc(C(=O)NCc3ccc(Cl)c(C(F)(F)F)c3)ccn2)c1 [Example 1.33]
1 to 7.94	O=C(O)CCSCc1cccc(C(=O)Nc2ccc(N3CCCCC3)cc2-c2cc(C(=O)NC3CCc4ccccc43)ccn2)c1 (stereo not drawn) [Example 1.34]
1 to 7.94	O=C(O)CCSCc1cccc(C(=O)Nc2ccc(N3CCCCC3)cc2-c2cc(C(=O)NC3Cc4ccccc4C3)ccn2)c1 [Example 1.35]
1 to 7.94	O=C(O)CCSCc1cccc(C(=O)Nc2ccc(N3CCCCC3)cc2-c2cc(C(=O)NC(c3ccccc3)c3ccccc3)ccn2)c1 [Example 1.36]
1 to 7.94	CN(Cc1cccc(C(F)(F)F)c1)C(=O)c1ccnc(-c2cc(N3CCCCC3)ccc2NC(=O)c2cccc(CSCCC(=O)O)c2)c1 [Example 1.37]
10 to 31.6	Cc1cccc(CN(C)C(=O)c2ccnc(-c3cc(N4CCCCC4)ccc3NC(=O)c3cccc(CSCCC(=O)O)c3)c2)c1 [Example 1.38]
1 to 7.94	O=C(O)CCSCc1cccc(C(=O)Nc2ccc(N3CCCCC3)cc2-c2cc(C(=O)NCc3ccc(OCc4ccccc4)cc3)ccn2)c1 [Example 1.39]
1 to 7.94	O=C(O)CCSCc1cccc(C(=O)Nc2ccc(N3CCCCC3)cc2-c2cc(C(=O)NCc3ccc(Oc4ccccc4)cc3)ccn2)c1 [Example 1.40]
1 to 7.94	O=C(O)CCSCc1cccc(C(=O)Nc2ccc(N3CCCCC3)cc2-c2cc(C(=O)NCc3cccc(-c4ccccc4)c3)ccn2)c1 [Example 1.42]
1 to 7.94	O=C(O)CCSCc1cccc(C(=O)Nc2ccc(N3CCCCC3)cc2-c2cc(C(=O)NCc3ccccc3OC(F)(F)F)ccn2)c1 [Example 1.43]
1 to 7.94	O=C(O)CCSCc1cccc(C(=O)Nc2ccc(N3CCCCC3)cc2-c2cc(C(=O)NCc3ccc(OC(F)(F)F)cc3)ccn2)c1 [Example 1.44]
1 to 7.94	O=C(O)CCSCc1cccc(C(=O)Nc2ccc(N3CCCCC3)cc2-c2cc(C(=O)NCc3cccc(OC(F)(F)F)c3)ccn2)c1 [Example 1.45]
1 to 7.94	Cc1cccc(CNC(=O)c2ccnc(-c3cc(N4CCCCC4)ccc3NC(=O)c3cccc(CSCCC(=O)O)c3)c2)c1 [Example 1.46]
1 to 7.94	O=C(O)CCSCc1cccc(C(=O)Nc2ccc(N3CCCCC3)cc2-c2cc(C(=O)NCc3ccc(C(F)(F)F)cc3)ccn2)c1 [Example 1.47]
